Results taken from PMC9787607, “A Novel Protocol for the Synthesis of 1,2,4-Oxadiazoles Active against Trypanosomatids and Drug-Resistant Leukemia Cell Lines” (Tropical Medicine and Infectious Disease, 2022).

Experiments:
[1] = Cytotoxicity to BALB/c mouse total splenocytes (MTT); assay type: cell-based; conditions: male, total splenocytes (primary), 100 μM, 48 h, compared to the untreated control (Table S1)
Method: BALB/c mouse total splenocytes were harvested from male mice between 6–8 weeks old. After euthanasia, the spleens were removed and macerated in DMEM. After centrifugation, the cells were treated with hemolytic ACK buffer at 37 °C for 5 min. […] After incubation for 48 h at 37 °C in 5% CO2, cell viability was determined after the addition of 20 µL per well of a solution containing MTT salt (3.0 mM) and phenazine metasulphate (0.72 mM). After further incubation for 1 h at 37 °C, the medium was removed, and DMSO was added to dissolve the dark-blue formazan crystals formed by MTT reduction. Absorbance was measured on a microplate reader at 570 nm.
(§1) The percent cell or parasite viability was calculated by the formula: % viability = [(A − P)/(N − P)] × 100, A = absorbance of specific well, P = positive control, N = negative control. Determination of half-maximal effective concentrations (EC50), calculated by logarithmic regression, and significance analysis (p < 0.05), using ANOVA and Dunnett’s test, by GraphPad Prism 7.0 software. The results are expressed as the mean and standard deviation (SD) of three independent experiments.

[2] = Cytotoxicity to LLC-MK2 host cells (MTT); assay type: cell-based; conditions: rhesus monkey, LLC-MK2 cells (kidney fibroblasts); screening at 50 μM, 120 h
Method: LLC-MK2 kidney fibroblasts (ATCC) and RAW 264.7 macrophages (ATCC) were cultivated in culture flasks in complete DMEM with 5% FBS at 37 °C in 5% CO2. The LLC-MK2 cell monolayer was detached by treatment with trypsin-EDTA 0.05% for 5 min at 37 °C. The RAW cell monolayer was detached mechanically. In both cases, the cells were centrifuged at 480× g for 6 min and resuspended in complete DMEM with 5% FBS, and the cell density was determined by counting with trypan-blue dye exclusion on Neubauer chambers before use.
LLC-MK2 cells were seeded in a 96-well microplate (1.0 × 10^4 cells per well) in complete DMEM with 5% FBS (120 µL per well). After incubation for 24 h at 37 °C in 5% CO2, the medium was renewed, and compounds were added at a range of concentrations in triplicate (50 μM or 100–1 μM). Untreated cells and cells treated with DMEM and 10% DMSO were used as negative and positive controls, respectively. Vehicle control containing DMEM and 0.3% DMSO was maintained for comparison. After incubation for 120 h at 37 °C in 5% CO2, the medium was renewed, and MTT salt solution in PBS was added (3.0 mM, 20 µL per well). After incubation for 2 h at 37 °C in 5% CO2, the supernatant was removed, and MTT formazan was dissolved in DMSO (150 µL per well). Absorbance was measured using a microplate reader at 570 nm.
as §1

Lucena-1 (K562/VCR) = assay: cells; assay type: cell-based, human; conditions: for RR (relative resistance) Lucena-1: (EC50 MDR cells)/(EC50 parental cells), Lucena-1/K562; for EC50: Homo sapiens, Lucena 1, 72 h, read-out: EC50 Lucena-1
Method: (§2) The CML cell lines K562, Lucena-1 (K562/VCR), and FEPS (K562/DNR) were cultured in RPMI-1640 medium supplemented with 25 mM HEPES and 2 g L^−1 sodium bicarbonate adjusted to pH 7.4 with NaOH, 100 U penicillin and […] streptomycin. All media were supplemented with 10% FBS. Dr. Vivian M. Rumjanek (Instituto de Bioquímica Médica, UFRJ, Brazil) kindly donated Lucena-1 and FEPS cells. Briefly, K562 cells were exposed to increasing concentrations of the chemotherapeutic drugs vincristine sulfate (VCR) and daunorubicin hydrochloride (DNR) (both from Sigma-Aldrich), as described previously. Lucena-1 (K562/VCR) and FEPS (K562/DNR) cells were cultured in the presence of either 60 nM VCR or 500 nM DNR to maintain the MDR phenotypes. For subcultures, cells were harvested every three days followed by washing with cold FBS, and a final concentration of 2 × 10^4 cells mL^−1 was maintained at 37 °C in 5% CO2.
(§3) Cell viability was determined by the 3-(4,5-dimethylthiazol-2-yl)-2,5-diphenyltetrazolium (MTT) colorimetric assay. CML cells (2 × 10^4 cells·mL^−1) were incubated for 72 h at 37 °C, followed by treatment with compounds at a range of concentrations (100–1 μM). Negative controls were prepared with 0.5% DMSO. An MTT salt solution was added to each well to a final concentration of 0.5 g·L^−1, and plates were incubated at 37 °C in 5% CO2 for 3 h. After centrifugation, 200 μL DMSO was added to dissolve the dark-blue formazan crystals formed by MTT reduction. Absorbance was measured on a microplate reader at 570 nm, which is directly proportional to formazan contents and indicative of living cells.
as §1

FEPS (K562/DNR) = assay: MTT cytotoxicity to MDR CML cell line FEPS; assay type: cell-based, human; conditions: for RR (relative resistance) FEPS: (EC50 MDR cells)/(EC50 parental cells), FEPS/K562; for EC50: Homo sapiens, K562, 72 h, MTT
Method: as §2, §3, §1

[3] = tested on: L. amazonensis promastigotes; assay: Anti-L. amazonensis promastigote assessment (MTT); assay type: cell-based; conditions: Leishmania amazonensis; 48 h, MTT; read-out: EC50 L. amazonensis promastigotes
Method: Promastigotes of L. amazonensis (MHOM/BR/75/Josefa) were cultured in Schneider’s insect medium (SIM) with 10% FBS. Parasites were harvested at the stationary growth phase for assessment against promastigotes and 24 h after cultures reached the stationary growth phase for infection assays. […]. Complete SIM media and amphotericin B (AmB) at 10 µM were used as negative and positive controls, respectively. A vehicle control containing SIM with 10% SFB media and 0.3% DMSO was maintained for comparison. The final volume of the experiment was 100 µL. After incubation for 48 h at 27 °C, MTT salt solution in PBS was added (3.0 mM, 20 µL per well). After incubation for 2 h at 27 °C, the MTT formazan was dissolved by adding 120 µL of solubilizing buffer (50% isopropanol, 40% acetate buffer pH 5.4, 10% Triton-X). Absorbance was measured using a microplate reader at 570 nm.
as §1

[4] = tested on: T. cruzi amastigotes (Tulahuen C2C4 LacZ strain); assay: microbe, parasite or virus in culture; assay type: cell-based, Trypanosoma cruzi; conditions: Trypanosoma cruzi, TULAHUEN, LLC-MK2, 120 h, screening at 50 μM, 120 h, compared with untreated controls
Method: To a monolayer of 1.0 × 10^7 LLC-MK2 cells in a 150 cm^2 culture flask were added 5.0 × 10^7 trypomastigotes of T. cruzi expressing the […] (Tulahuen C2C4 LacZ) in complete DMEM with 2.5% FBS. The infection was allowed to occur for 24 h, the supernatant was removed, and the cell monolayer was washed with PBS. Complete DMEM with 2.5% FBS was renewed every 2 days up to the sixth day after infection. Trypomastigote forms were collected daily from the supernatant between days 7 and 12 after infection, enriched by differential centrifugation (1500× g for 10 min, 5580× g for 20 min), and resuspended in complete DMEM with 5% FBS. Parasite density was determined by counting the mobile trypomastigotes on Neubauer chambers before use.
. The medium was renewed, and trypomastigote forms of T. cruzi (Tulahuen C2C4 LacZ strain, 2.0 × 10^5 parasites per well) were added. After incubation for 24 h at 37 °C in 5% CO2, the cell monolayer was washed with PBS to remove noninternalized parasites. DMEM without phenol red and 5% FBS was added, and infected cells were treated with compounds at a range of concentrations in triplicate (50 μM or 100–1 μM). Untreated infected cells and noninfected LLC-MK2 cells were used as negative and positive controls, respectively. Vehicle control containing DMEM without phenol red and 0.3% DMSO was maintained for comparison. After incubation for 120 h at 37 °C in 5% CO2, a solution containing […] and 0.8% IGEPAL CA-630 in PBS (30 µL per well), followed by further incubation for 2 h at 37 °C in 5% CO2. Absorbance was measured using a microplate reader at 570 nm.
as §1

K562 = assay: MTT cytotoxicity to CML cell line K562; assay type: cell-based; conditions: Homo sapiens, 72 h
Method: as §2, §3, §1

Row | SMILES | viability at 48 h, 100 µM [1] [%] | viability at 120 h, 50 µM [2] [%] | RR (relative resistance) Lucena-1 (Lucena-1 (K562/VCR)) | EC50 (Lucena-1 (K562/VCR)) [µM] | RR (relative resistance) FEPS (FEPS (K562/DNR)) | EC50 (FEPS (K562/DNR)) [µM] | EC50 [3] [µM] | viability at 50 µM [4] [%] | EC50 (K562) [µM] | melting point [°C]
1 | O=[N+]([O-])c1ccc(/C=C/c2nc(-c3ccccc3)no2)cc1 [Compound 20, (E)-3-phenyl-5-[2-(4-nitrophenyl)vinyl]-1,2,4-oxadiazole] | 77.8 ± 4.2 | 78.2 ± 2.1 | 1.33 | 45.7 ± 4.3 | 1.35 | 46.4 ± 4.9 | > 100 | 74.5 ± 5.4 | 34.4 ± 7.4 | 205 to 208
2 | COc1cccc(/C=C/c2nc(-c3cc(OC)c(OC)c(OC)c3)no2)c1 [Compound 22, (E)-3-(3,4,5-trimethoxyphenyl)-5-[2-(3-methoxyphenyl)-vinyl]-1,2,4-oxadiazole] | 63.5 ± 2.4 | 87.1 ± 1.7 | <0.73 | 72.9 ± 3 | <0.36 | 36.1 ± 12.4 | > 100 | 66.1 ± 2.3 | > 100 | 117 to 119
3 | COc1ccc(/C=C/c2nc(-c3ccccc3)no2)cc1 [Compound 11, (E)-3-phenyl-5-[2-(4-methoxyphenyl)vinyl]-1,2,4-oxadiazole] | 84.4 ± 2.9 | 77.4 ± 4 |  | > 100 | <0.59 | 58.8 ± 6.1 | > 100 | 86.2 ± 5.3 | > 100 | 132 to 135
4 | Fc1ccc(/C=C/c2nc(-c3ccccc3)no2)cc1 [Compound 18, (E)-3-phenyl-5-[2-(4-fluorophenyl)vinyl]-1,2,4-oxadiazole] | 102 ± 11.5 | 90.7 ± 4.3 | <0.59 | 59.9 ± 12.2 | <0.67 | 66.7 ± 9.6 | > 100 | 82.8 ± 4.7 | > 100 | 
5 | C(=C\c1nc(-c2ccccc2)no1)/c1ccccc1 [Compound 9, (E)-3-phenyl-5-[2-phenylvinyl]-1,2,4-oxadiazole] | 102 ± 7.4 | 87.2 ± 4 |  | > 100 |  | > 100 | 74.5 ± 4.9 | 87 ± 4.9 | > 100 | 
6 | C(=C\c1nc(-c2ccccc2)no1)/c1ccc2c(c1)OCO2 [Compound 13, (E)-3-phenyl-5-[2-(3,4-methylenedioxy-phenyl)vinyl]-1,2,4-oxadiazole] | 98.8 ± 5.1 | 75.9 ± 1.3 | 0.50 | 46.5 ± 1.9 | 0.74 | 68.5 ± 8.7 | > 100 | 72 ± 3.7 | 92.3 ± 4.2 | 157 to 159
7 | C(=C\c1nc(-c2ccccc2)no1)/c1ccco1 [Compound 16, (E)-3-phenyl-5-[2-fur-2-yl-vinyl]-1,2,4-oxadiazole] | 53.5 ± 5.2 | 89.2 ± 1.4 | 1.23 | 65 ± 9.6 | 1.03 | 54.7 ± 1.7 | 47.1 ± 3.7 | 83 ± 3.7 | 52.8 ± 17.7 | 83 to 85
8 | Clc1ccc(/C=C/c2nc(-c3ccccc3)no2)cc1 [Compound 19, (E)-3-phenyl-5-[2-(4-chlorophenyl)vinyl]-1,2,4-oxadiazole] | 90.5 ± 5.3 | 77.8 ± 0.9 | 0.92 | 43.4 ± 3.4 | >2.12 | > 100 | > 100 | 83.4 ± 5.9 | 47.1 ± 1.2 | 
